Publication PMC13510729, “Multiheme selenoenzyme essential for elemental sulfur respiration” (Science Advances, 2026)

Test system: T1, MccSep
T1 construct: selenoprotein read through an in-frame UGA (Sec325) joining gsu2937 and gsu2936, databases may hold it as two ORFs; C-terminal Factor Xa site and Strep-tag; expressed in G. sulfurreducens PCA delta-mccsep; five heme c per subunit; about 49 kDa; homotetramer of 200 kDa
Assay: spectrophotometric oxidation of reduced methyl viologen at […] nm, allosteric sigmoidal fit
Assay type: biochemical, Geobacter sulfurreducens
Conditions: reduced methyl viologen (0.3 mM) with 0.075 mM dithionite, 2 mM CaCl2, 50 mM Bicine-NaOH pH 8.5, 30 °C, anaerobic; Hill coefficient 1.5 ± 0.1; read-out: apparent K0.5

`O=[Se](O)O` [selenite] was tested, and the Km was 990 ± 40 µM.
